Test results as given in ChEMBL document CHEMBL6182898, “Design, synthesis and bioevaluation of novel hydrazide derivatives as enhancers of immunotherapy and DNA-damage response in antitumor therapy” (Eur J Med Chem, 2025).
Activity calls are given as the source filed them. The calls are words filed in the database; no cut-off is given here.

How the values were obtained:
[1] = MRT (0 to t) in male Sprague-Dawley rat at 2 mg/kg, iv measured for 0.083 to 12 hrs by LC-MS/MS analysis; format: ADME, organism-based; details: in vivo, time 0.083-12 hrs
[2] = Toxicity in male C57BL/6J mouse implanted with mouse B16-F10 cells assessed as histopathological damage in kidney at 25 mg/kg, IG treated for 14 days consecutively in presence of NP-19 by H and E staining based analysis; format: organism-based; details: in vivo, po, 336 h, time 14 day
[3] = biological target: Programmed cell death 1 ligand 1 (Mus musculus) (UniProt Q9EP73); experiment: Induction of PD-L1 degradation in mouse B16-F10 cells at 5 uM incubated for 24 hrs in presence of Bafilomycin A1 by Western blot analysis; format: cell-based
Sequence of Programmed cell death 1 ligand 1 (Mus musculus) (Q9EP73 whole entry): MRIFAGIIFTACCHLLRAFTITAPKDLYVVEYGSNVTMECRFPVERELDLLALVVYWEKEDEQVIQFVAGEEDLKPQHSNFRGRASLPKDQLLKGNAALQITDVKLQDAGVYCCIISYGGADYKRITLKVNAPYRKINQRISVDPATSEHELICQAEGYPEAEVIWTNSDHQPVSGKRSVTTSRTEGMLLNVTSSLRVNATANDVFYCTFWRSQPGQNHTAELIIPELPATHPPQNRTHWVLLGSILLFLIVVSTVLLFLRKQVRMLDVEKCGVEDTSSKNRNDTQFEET

B16-F10 [4] = experiment: Antitumor activity against mouse B16-F10 cells implanted in male C57BL/6J mouse at 50 mg/kg, IG treated for 14 days consecutively relative to control; format: functional; details: B16-F10, po, 336 h, time 14 day, read-out: TGI
[5] = VRT (0 to infinity) in male Sprague-Dawley rat at 2 mg/kg, iv measured for 0.083 to 12 hrs by LC-MS/MS analysis; format: ADME, organism-based; details: in vivo, time 0.083-12 hrs
[6] = VRT (0 to infinity) in male Sprague-Dawley rat at 20 mg/kg, po measured for 0.083 to 12 hrs by LC-MS/MS analysis; format: ADME, organism-based; details: in vivo, time 0.083-12 hrs
4T1 [7] = experiment: Synergistic induction of DNA damage in mouse 4T1 cells assessed as decrease in PARP1 level at 1 uM incubated for 24 hrs in presence of Olaparib by Western blot analysis; format: functional, cell-based
[8] = Toxicity in male C57BL/6J mouse implanted with mouse B16-F10 cells assessed as histopathological damage in heart at 25 mg/kg, IG treated for 14 days consecutively in presence of NP-19 by H and E staining based analysis; format: organism-based; details: in vivo, po, 336 h, time 14 day
4T1 [9] = experiment: Induction of DNA damage in mouse 4T1 cells assessed as increase in gamma-H2AX level at 2 uM incubated for 24 hrs by Western blot analysis; format: functional, cell-based
[10] = Half life in male Sprague-Dawley rat at 2 mg/kg, iv measured for 0.083 to 12 hrs by LC-MS/MS analysis; format: ADME, organism-based; details: in vivo, time 0.083-12 hrs
[11] = biological target: T1, Histone deacetylase 3 (Mus musculus) (UniProt O88895); experiment: In vivo inhibition of HDAC3 in mouse B16-F10 cells implanted in male C57BL/6J mouse assessed as increase in Ac-H3 level at 50 mg/kg, IG treated for 14 days consecutively by immunofluorescence based analysis; format: functional, organism-based; details: time 14.0 day
T1 sequence (whole entry): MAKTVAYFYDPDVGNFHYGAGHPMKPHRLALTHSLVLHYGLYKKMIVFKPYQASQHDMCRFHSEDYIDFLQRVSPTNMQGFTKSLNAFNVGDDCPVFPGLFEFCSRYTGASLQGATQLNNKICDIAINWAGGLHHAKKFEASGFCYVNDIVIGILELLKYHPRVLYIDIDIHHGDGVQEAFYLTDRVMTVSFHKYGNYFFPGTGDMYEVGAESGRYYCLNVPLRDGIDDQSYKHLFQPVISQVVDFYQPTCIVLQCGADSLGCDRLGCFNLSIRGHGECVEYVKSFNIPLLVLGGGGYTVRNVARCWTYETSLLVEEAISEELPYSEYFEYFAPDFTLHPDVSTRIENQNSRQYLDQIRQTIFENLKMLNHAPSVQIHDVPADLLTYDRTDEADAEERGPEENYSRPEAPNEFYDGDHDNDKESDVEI

[12] = AUMC (0 to t) in male Sprague-Dawley rat at 20 mg/kg, po measured for 0.083 to 12 hrs by LC-MS/MS analysis; format: ADME, organism-based; details: in vivo, time 0.083-12 hrs
B16-F10 [13] = experiment: Induction of antitumor immunity in mouse B16-F10 cells implanted in male C57BL/6J mouse assessed as CD3+CD8+ T cell infiltration at 25 mg/kg, IG treated for 14 days consecutively in presence of NP-19 by flow cytometry (reference value: 10 %); format: functional; details: time 14 day
[14] = Toxicity in male C57BL/6J mouse implanted with mouse B16-F10 cells assessed as histopathological damage in liver at 50 mg/kg, IG treated for 14 days consecutively by H and E staining based analysis; format: organism-based; details: in vivo, po, 336 h, time 14 day
[15] = VRT (0 to t) in male Sprague-Dawley rat at 20 mg/kg, po measured for 0.083 to 12 hrs by LC-MS/MS analysis; format: ADME, organism-based; details: in vivo, time 0.083-12 hrs
[16] = biological target: Programmed cell death 1 ligand 1 (Mus musculus) (UniProt Q9EP73); experiment: Induction of PD-L1 degradation in mouse B16-F10 cells at 2 uM incubated for 24 hrs in presence of CA-074 by Western blot analysis; format: cell-based
[17] = Toxicity in male C57BL/6J mouse implanted with mouse B16-F10 cells assessed as histopathological damage in liver at 25 mg/kg, IG treated for 14 days consecutively in presence of NP-19 by H and E staining based analysis; format: organism-based; details: in vivo, po, 336 h, time 14 day
4T1 [18] = experiment: Synergistic induction of DNA damage in mouse 4T1 cells assessed as increase in gamma-H2AX level at 1 uM incubated for 24 hrs in presence of Olaparib by Western blot analysis; format: functional, cell-based
[19] = Apparent volume of distribution in male Sprague-Dawley rat at 2 mg/kg, iv measured for 0.083 to 12 hrs by LC-MS/MS analysis; format: ADME, organism-based; details: in vivo, time 0.083-12 hrs, read-out: Vz
[20] = AUMC (0 to infinity) in male Sprague-Dawley rat at 2 mg/kg, iv measured for 0.083 to 12 hrs by LC-MS/MS analysis; format: ADME, organism-based; details: in vivo, time 0.083-12 hrs
[21] = Toxicity in male C57BL/6J mouse implanted with mouse B16-F10 cells assessed as histopathological damage in heart at 50 mg/kg, IG treated for 14 days consecutively by H and E staining based analysis; format: organism-based; details: in vivo, po, 336 h, time 14 day
4T1 [22] = experiment: Induction of DNA damage in mouse 4T1 cells assessed as decrease in PARP1 level at 2 uM incubated for 24 hrs by Western blot analysis; format: functional, cell-based
B16-F10 [23] = experiment: Antitumor activity against mouse B16-F10 cells implanted in male C57BL/6J mouse at 25 mg/kg, IG treated for 14 days consecutively in presence of NP-19 relative to control; format: functional; details: B16-F10, po, 336 h, time 14 day, read-out: TGI

MRT last [1]: 0.34 h
VRT [5]: 0.98 h²
VRT [6]: 14.7 h²
half-life [10]: 2.21 h
inhibition [11]: Active
AUMCt [12]: 77.04 hr.hr.ug/L
VRT(t) [15]: 6.38 h²
Vd [19]: 10.6 L/kg
AUMC [20]: 238.68 hr.hr.ug/L
Structure (SMILES): CCCNNC(=O)CCCCCCNC(=O)c1cnc(-c2ccc(NC(=O)OC(C)(C)C)cc2)s1
Activity [2]: Non-toxic
Activity [3]: inactive
inhibition in vivo at 50 mg/kg (B16-F10 [4]): 59%
Activity (4T1 [7]): Active
Activity [8]: Non-toxic
Activity (4T1 [9]): Active
Activity (B16-F10 [13]): 38%
Activity [14]: Non-toxic
Activity [16]: inactive
Activity [17]: Non-toxic
Activity (4T1 [18]): Active
Activity [21]: Non-toxic
Activity (4T1 [22]): Active
inhibition in vivo at 25 mg/kg (B16-F10 [23]): 65%
